From PubChem BioAssay (NCI)
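96-well plates; 48 h exposure; 5 concentrations. Endpoints by linear interpolation between flanking doses. Not reached: highest tested concentration assigned. The concentration for 50% growth inhibition is given as GI50. TGI is the concentration that stops growth completely.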

Tests used:
Test in all cases: NCI tumour cell line growth inhibition, 48 h
HCT-15 colon = test system: HCT-15 colon
NCI-H226 lung = test system: NCI-H226 lung
NCI-H522 lung = test system: NCI-H522 lung
UO-31 renal = test system: UO-31 renal
EKVX NSCLC = test system: EKVX NSCLC
MCF7 breast = test system: MCF7 breast
MDA-MB-231 breast = test system: MDA-MB-231 breast
MDA-MB-435 = test system: MDA-MB-435
SK-OV-3 ovarian = test system: SK-OV-3 ovarian
SN12C renal = test system: SN12C renal

CC(C)([NH-])CO.CC(C)([NH-])CO.[Cl][Cd][Cl]
GI50 (HCT-15 colon): 20.3 µM
TGI (HCT-15 colon): 41.4 µM
GI50 (NCI-H226 lung): 7.84 µM
TGI (NCI-H226 lung): 20.9 µM
GI50 (NCI-H522 lung): 1.56 µM
TGI (NCI-H522 lung): 3.37 µM
GI50 (UO-31 renal): 35.4 µM
TGI (UO-31 renal): > 100 µM

[N-]=[N+]=NCCCCCC(=O)OC(C(=O)c1ccccc1)c1cccc(OCC(=O)NCCOCCOCCNC(=O)CCCC[C@@H]2SC[C@@H]3NC(=O)N[C@@H]32)c1 (some centres undefined)
GI50 (EKVX NSCLC): > 100 µM
TGI (EKVX NSCLC): > 100 µM
GI50 (HCT-15 colon): > 100 µM
TGI (HCT-15 colon): > 100 µM
GI50 (MCF7 breast): 51.3 µM
TGI (MCF7 breast): > 100 µM
GI50 (MDA-MB-231 breast): 44 µM
TGI (MDA-MB-231 breast): > 100 µM
GI50 (MDA-MB-435): 50.6 µM
TGI (MDA-MB-435): > 100 µM
GI50 (NCI-H226 lung): > 100 µM
TGI (NCI-H226 lung): > 100 µM
GI50 (NCI-H522 lung): > 100 µM
TGI (NCI-H522 lung): > 100 µM
GI50 (SK-OV-3 ovarian): > 100 µM
TGI (SK-OV-3 ovarian): > 100 µM
GI50 (SN12C renal): > 100 µM
TGI (SN12C renal): > 100 µM
GI50 (UO-31 renal): > 100 µM
TGI (UO-31 renal): > 100 µM

C[C@]12CC/C(=N\O)C=C1CC[C@@H]1C2CC[C@@]2(C)C1CC[C@@H]2OC1CCCCO1 (some centres undefined)
TGI (EKVX NSCLC): 31.9 µM
TGI (HCT-15 colon): 43.2 µM
TGI (NCI-H522 lung): 34.7 µM
TGI (SK-OV-3 ovarian): 36.3 µM
TGI (SN12C renal): > 10 µM
TGI (UO-31 renal): 43.7 µM

Cc1ccc(S(=O)(=O)NC2(C=O)CCCC3CCCCC32)cc1 (centres undefined)
TGI (HCT-15 colon): > 100 µM
TGI (NCI-H226 lung): > 100 µM
TGI (NCI-H522 lung): > 100 µM
TGI (SK-OV-3 ovarian): > 100 µM
TGI (SN12C renal): > 100 µM
TGI (UO-31 renal): > 100 µM

O=c1[nH]c(=S)[nH]c2c1CN(CCCN1CCOCC1)CN2
TGI (EKVX NSCLC): > 100 µM
TGI (HCT-15 colon): > 100 µM
TGI (MCF7 breast): > 100 µM
TGI (MDA-MB-231 breast): 66.4 µM
TGI (MDA-MB-435): 69.6 µM
TGI (NCI-H226 lung): > 100 µM
TGI (NCI-H522 lung): 52.3 µM
TGI (SN12C renal): > 100 µM
TGI (UO-31 renal): > 100 µM

Cc1csc(/C=C/C(=O)c2nnn(-c3ccnc4c(C(F)(F)F)cccc34)c2C)c1
GI50 (EKVX NSCLC): 69.3 µM
TGI (EKVX NSCLC): > 100 µM
GI50 (HCT-15 colon): 57.5 µM
TGI (HCT-15 colon): > 100 µM
GI50 (MCF7 breast): > 100 µM
TGI (MCF7 breast): > 100 µM
GI50 (MDA-MB-231 breast): 29.2 µM
TGI (MDA-MB-231 breast): > 100 µM
GI50 (MDA-MB-435): 56.9 µM
TGI (MDA-MB-435): > 100 µM
GI50 (NCI-H226 lung): 53.8 µM
TGI (NCI-H226 lung): > 100 µM
GI50 (NCI-H522 lung): 26.4 µM
TGI (NCI-H522 lung): > 100 µM
GI50 (SK-OV-3 ovarian): 89.1 µM
TGI (SK-OV-3 ovarian): > 100 µM
GI50 (SN12C renal): 25 µM
TGI (SN12C renal): > 100 µM
GI50 (UO-31 renal): 94.4 µM
TGI (UO-31 renal): > 100 µM

COc1ccc(/C(Cl)=C(\C=N/O)c2ccc(OC)c(OC)c2)cc1OC
TGI (EKVX NSCLC): > 100 µM
TGI (HCT-15 colon): > 100 µM
TGI (NCI-H226 lung): > 100 µM
TGI (NCI-H522 lung): > 100 µM
TGI (SK-OV-3 ovarian): > 100 µM
TGI (SN12C renal): > 100 µM
TGI (UO-31 renal): > 100 µM

O=C(COc1cc(O)c2c(=O)cc(-c3ccccc3)oc2c1)Nc1ccccc1C(F)(F)F
GI50 (EKVX NSCLC): 9.37 µM
TGI (EKVX NSCLC): 62.4 µM
GI50 (HCT-15 colon): 3.28 µM
TGI (HCT-15 colon): 21.1 µM
GI50 (MCF7 breast): 7.4 µM
TGI (MCF7 breast): > 100 µM
GI50 (MDA-MB-231 breast): 2.04 µM
TGI (MDA-MB-231 breast): 5.26 µM
GI50 (MDA-MB-435): 6.03 µM
TGI (MDA-MB-435): > 100 µM
GI50 (NCI-H226 lung): 2.28 µM
TGI (NCI-H226 lung): 6.48 µM
GI50 (NCI-H522 lung): 6.77 µM
TGI (NCI-H522 lung): > 100 µM
GI50 (SK-OV-3 ovarian): 14.9 µM
TGI (SK-OV-3 ovarian): 50.7 µM
GI50 (SN12C renal): 4.02 µM
TGI (SN12C renal): > 100 µM

O=C(Nc1ccc(Cl)c(Cl)c1)Nc1c(Oc2ccc(Cl)c(Cl)c2)ccc(Cl)c1S(=O)(=O)O
GI50 (MCF7 breast): 0.388 µM
TGI (MCF7 breast): > 100 µM
GI50 (MDA-MB-231 breast): 1.98 µM
TGI (MDA-MB-231 breast): 66.8 µM
GI50 (NCI-H226 lung): 3.91 µM
TGI (NCI-H226 lung): > 100 µM
GI50 (SN12C renal): 4.48 µM
TGI (SN12C renal): > 100 µM
GI50 (UO-31 renal): 3.13 µM
TGI (UO-31 renal): > 100 µM

CCOC(=O)c1cc2c(cc1Cl)SC(N(c1ccc(OC)cc1)S(=O)(=O)c1ccc(Cl)cc1)=NS2(=O)=O
GI50 (EKVX NSCLC): 41.7 µM
TGI (EKVX NSCLC): > 100 µM
GI50 (HCT-15 colon): 32.3 µM
TGI (HCT-15 colon): > 100 µM
GI50 (MCF7 breast): 25.6 µM
TGI (MCF7 breast): 68.2 µM
GI50 (MDA-MB-231 breast): 47 µM
TGI (MDA-MB-231 breast): > 100 µM
GI50 (MDA-MB-435): 22.1 µM
TGI (MDA-MB-435): 57 µM
GI50 (NCI-H226 lung): 94.1 µM
TGI (NCI-H226 lung): > 100 µM
GI50 (NCI-H522 lung): 21 µM
TGI (NCI-H522 lung): 64.8 µM
GI50 (SK-OV-3 ovarian): > 100 µM
TGI (SK-OV-3 ovarian): > 100 µM
GI50 (SN12C renal): 31.8 µM
TGI (SN12C renal): > 100 µM
GI50 (UO-31 renal): 32 µM
TGI (UO-31 renal): > 100 µM

Cc1ccc(/C(O)=C/C(=O)C(=O)NC23CC4CC(CC(C4)C2)C3)cc1
TGI (EKVX NSCLC): > 10 µM
TGI (HCT-15 colon): > 10 µM
TGI (MCF7 breast): > 10 µM
TGI (MDA-MB-231 breast): > 10 µM
TGI (MDA-MB-435): > 10 µM
TGI (SK-OV-3 ovarian): > 10 µM
TGI (SN12C renal): > 10 µM

Nc1c(C(=O)Nc2cccc(F)c2)sc2nc3c(cc12)C(=O)CCC3
GI50 (HCT-15 colon): 0.298 µM
TGI (HCT-15 colon): > 100 µM
GI50 (MCF7 breast): 0.304 µM
TGI (MCF7 breast): > 100 µM
GI50 (MDA-MB-231 breast): 1.67 µM
TGI (MDA-MB-231 breast): > 75.2 µM
GI50 (NCI-H226 lung): > 90.1 µM
TGI (NCI-H226 lung): > 100 µM
GI50 (NCI-H522 lung): 0.371 µM
TGI (NCI-H522 lung): > 100 µM
GI50 (SK-OV-3 ovarian): 0.436 µM
TGI (SK-OV-3 ovarian): > 100 µM
GI50 (SN12C renal): 0.743 µM
TGI (SN12C renal): > 100 µM
TGI (UO-31 renal): > 100 µM

CC12CCC3(OCCO3)C(OC(=O)c3ccccc3)=C1CCC21OCCO1 (centres undefined)
TGI (EKVX NSCLC): > 100 µM
TGI (HCT-15 colon): > 100 µM
TGI (NCI-H226 lung): > 100 µM
TGI (NCI-H522 lung): > 100 µM
TGI (SK-OV-3 ovarian): > 100 µM
TGI (SN12C renal): > 100 µM
TGI (UO-31 renal): > 100 µM

Cc1cccc(C(C)(C)C)c1NC(=O)CC1C(=O)Nc2ccccc2S1(=O)=O (centres undefined)
TGI (EKVX NSCLC): 14.5 µM
TGI (HCT-15 colon): 16.3 µM
TGI (NCI-H226 lung): 32.8 µM
TGI (SN12C renal): 25.7 µM
TGI (UO-31 renal): 23.3 µM

COc1ccc(-c2cc(=O)c3cc(OC)ccc3[nH]2)cc1
TGI (EKVX NSCLC): > 100 µM
TGI (NCI-H226 lung): > 100 µM
TGI (NCI-H522 lung): > 100 µM
TGI (SK-OV-3 ovarian): > 100 µM
TGI (SN12C renal): > 100 µM
TGI (UO-31 renal): > 100 µM

CC1CCCC(C(O)CC2CC(=O)NC(=O)C2)C1O (centres undefined)
TGI (EKVX NSCLC): > 100 µM
TGI (HCT-15 colon): > 100 µM
TGI (MCF7 breast): > 100 µM
TGI (MDA-MB-231 breast): > 100 µM
TGI (MDA-MB-435): > 100 µM
TGI (NCI-H226 lung): > 100 µM
TGI (SK-OV-3 ovarian): > 100 µM
TGI (SN12C renal): > 100 µM
TGI (UO-31 renal): > 100 µM

C/C1=C/C(=O)O[C@@H]2C[C@@H](CC[C@H](C)/C=C\C=C\CC1)O[C@@](O)([C@@H]1CSC(=O)N1)C2
TGI (EKVX NSCLC): > 5.52 µM
TGI (HCT-15 colon): > 10 µM
TGI (MCF7 breast): > 10 µM
TGI (MDA-MB-231 breast): > 2.65 µM
TGI (MDA-MB-435): > 2.24 µM
TGI (NCI-H226 lung): > 2.9 µM
TGI (SK-OV-3 ovarian): > 9.4 µM
TGI (SN12C renal): > 10 µM
TGI (UO-31 renal): 1.25 µM

COc1cc(C2SCC(=O)N2c2ncc(C)s2)cc(OC)c1OC (centres undefined)
GI50 (EKVX NSCLC): 43.9 µM
TGI (EKVX NSCLC): > 50 µM
GI50 (HCT-15 colon): 16.3 µM
TGI (HCT-15 colon): > 50 µM
GI50 (MCF7 breast): > 50 µM
TGI (MCF7 breast): > 50 µM
GI50 (MDA-MB-435): 2.91 µM
TGI (MDA-MB-435): 24.9 µM
GI50 (NCI-H226 lung): > 50 µM
TGI (NCI-H226 lung): > 50 µM
GI50 (NCI-H522 lung): > 50 µM
TGI (NCI-H522 lung): > 50 µM
GI50 (SN12C renal): 13.3 µM
TGI (SN12C renal): > 50 µM
GI50 (UO-31 renal): > 50 µM
TGI (UO-31 renal): > 50 µM

CN1C(=O)C2C3C=C4c5ccccc5N(c5ccccc5)C4(C2C1=O)[C@H]1C(=O)N(C)C(=O)[C@@H]31 (some centres undefined)
TGI (EKVX NSCLC): > 100 µM
TGI (NCI-H226 lung): > 100 µM
TGI (NCI-H522 lung): > 100 µM
TGI (SK-OV-3 ovarian): > 100 µM
TGI (SN12C renal): > 100 µM
TGI (UO-31 renal): > 100 µM
